Results on 1 compound are retold here after PMC9259847, “Baicalin Induces a Potent Innate Immune Response to Inhibit Respiratory Syncytial Virus Replication via Regulating Viral Non-Structural 1 and Matrix RNA” (Frontiers in Immunology, 2022).

The test addresses T1, NS1 protein (RSV non-structural protein NS1) (Human respiratory syncytial virus A2, UniProt P0DOE9).
T1 construct: gene 1C; NS1 coupled to CM5 chip
The test is described as follows: SPR (Biacore T200, NS1 coupled to CM5 chip). The format is binding. In general terms: In SPR one partner is held on a chip, and binding of the other changes the refractive index at the surface.

The structures appear in SMILES notation. pKd: −log10 of the molar value.

T1 sequence (P0DOE9 whole entry): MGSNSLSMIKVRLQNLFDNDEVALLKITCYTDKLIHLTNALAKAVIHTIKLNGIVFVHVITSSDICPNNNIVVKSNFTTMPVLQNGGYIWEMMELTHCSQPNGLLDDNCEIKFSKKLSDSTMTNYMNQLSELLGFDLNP

The pKd is the Kd on a negative log10 scale, so that one unit is a factor of ten. For the compound `O=C(O)[C@H]1O[C@@H](Oc2cc3oc(-c4ccccc4)cc(=O)c3c(O)c2O)[C@H](O)[C@@H](O)[C@@H]1O` [baicalin], the pKd is 4.95.
